Laboratory results taken from US11820737B2, “Generation of peroxyhydroxycarboxylic acid and the use thereof” (ECOLAB USA INC., priority 2020, dated 2023).
“And” between values parts separate entries of the source, which are not always exact repeats. Identical values can stand only once.

What was measured:
[1] = tested on: Campylobacter jejuni ATCC 33291; experiment: Food contact suspension test (FCS, AOAC 960.09); format: cell-based; settings: for concentration required for efficacy: 75° F., FIG. 6; for Avg. Log10 Growth / Log10 Reduction: 30 second
Procedure: Antimicrobial Efficacy of Peroxylactic Acid. The antimicrobial efficacy of generated peroxylactic acid was evaluated following the US EPA food contact suspension test protocol (AOAC 960.09) against Staphylococcus aureus and Escherichia coli according to the conditions set forth in Table 7.
Additional efficacy testing against Campylobacter jejuni ATCC 33291 as described in Table 10 was completed to compare efficacy at 75° F. of lactic acid, peroxylactic acid (PLA) and peroxyacetic acid (PAA). […] In particular, in comparison to lactic acid substantially lower concentrations are required (25 ppm PLA instead of approximately 5000 ppm lactic acid).
Beneficially, the concentration of peroxylactic acid required for micro efficacy are substantially lower than lactic acid and the lactic acid which is formed upon degradation of the peroxylactic acid is further beneficial for micro efficacy.

[2] = tested on: Listeria monocytogenes ATCC 49594; experiment: Food contact suspension test (FCS, AOAC 960.09); format: cell-based; settings: 30 second
Procedure: (§1) Additional antimicrobial efficacy of generated peroxylactic acid was evaluated following the US EPA food contact suspension test protocol (AOAC 960.09) against Salmonella, E. coli, Campylobacter and Listeria according to the conditions set forth in Table 16.

[3] = tested on: Salmonella, E. coli, Campylobacter and Listeria; experiment: Food contact suspension test (AOAC 960.09), FIG. 7; format: cell-based; settings: 30 seconds
Procedure: as §1
In addition at 100 ppm PLA provides efficacy of greater than 7 log reduction against Listeria, whereas peroxyacetic acid is known to require at least about 180 ppm for greater than 7 log reduction against Listeria.

[4] = Kinetic instability of peroxylactic acid generated through equilibrium reaction of lactic acid and hydrogen peroxide (FIG. 4); format: physicochemical; settings: generated through equilibrium between lactic acid and H2O2, FIG. 4
Procedure: Comparison of Lactide Ester to Lactic Acid Precursor to Generate Peroxylactic Acid. The equilibrium reaction using lactic acid reagent for generating perlactic acid was performed to show the distinct advantages of the methods of generation according to the invention. […] It is also known that the reaction results in additional byproducts—which may not be suitable for various applications of use.
This makes it commercially not feasible to deliver the compositions for end application at customer locations.

Compound	concentration required for efficacy [1]	Avg. Log10 Growth ([2]; 50 ppm PLA)	CFU/mL ([2]; 50 ppm PLA)	Log10 Growth ([2]; 50 ppm PLA)	Log10 Reduction ([2]; 50 ppm PLA)	Avg. Log10 Growth ([2]; 100 ppm PLA)	Log10 Reduction ([2]; 100 ppm PLA)	Avg. Log10 Growth ([2]; 150 ppm PLA)	Log10 Reduction ([2]; 150 ppm PLA)	low concentration dose providing efficacy against various microbes [3]	Avg. Log10 Growth ([1]; 25 ppm PLA)	Log10 Reduction ([1]; 25 ppm PLA)	Avg. Log10 Growth ([1]; 50 ppm PLA)	Log10 Reduction ([1]; 50 ppm PLA)	Avg. Log10 Growth ([1]; 75ppm PLA)	Log10 Reduction ([1]; 75ppm PLA)	stability of generated perlactic acid [4]
CC(O)C(=O)O (stereo not drawn) [Lactic Acid, reference compound]	approximately 5000 ppm																
CC(O)C(=O)OO (stereo not drawn) [PLA, peroxylactic acid]	25 ppm	5.84 Log10	6.90E+05 CFU/mL and 6.80E+05 CFU/mL	5.84 Log10 and 5.83 Log10	2.23 Log10	<1.00 Log10	>7.06 Log10	<1.00 Log10	>7.06 Log10	25 ppm	<1.00 Log10	>7.06 Log10	<1.00 Log10	>7.06 Log10	<1.00 Log10	>7.06 Log10	very unstable
